From PubChem BioAssay AID256 (DTP/NCI, 2004)
Values joined by “and” are separate entries in the source; they are usually repeats but may differ in a detail not shown here. Equal values may be shown once. Toxic doses and inconclusive results are not listed. The calls were made as follows: active = survival T/C of 150% or more; inactive = T/C below 125% in these data.

Test system: CD2F1 mice, L1210 leukemia ip, survival T/C
Experiment: NCI In Vivo Anticancer Drug Screen. Data for tumor model L1210 Leukemia (intraperitoneal) in CD2F1 (CDF1) mice
Conditions: higher = longer survival
In short: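 Activity against a transplanted murine tumor was judged by comparing the compound group with a vehicle group. The outcome in the treated animals was divided by that in the controls.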

[1] = endpoint: mean survival time, dose: 100.0 mg/kg/injection, schedule: Q01DX001 (ip), vehicle: saline with Tween-80
[2] = endpoint: mean survival time, dose: 100.0 mg/kg/injection, schedule: Q04DX002 (ip), vehicle: saline with Tween-80
[3] = endpoint: mean survival time, dose: 200.0 mg/kg/injection, schedule: Q01DX001 (ip), vehicle: saline with Tween-80
[4] = endpoint: mean survival time, dose: 200.0 mg/kg/injection, schedule: Q04DX002 (ip), vehicle: saline with Tween-80
[5] = endpoint: mean survival time, dose: 400.0 mg/kg/injection, schedule: Q01DX001 (ip), vehicle: saline with Tween-80
[6] = endpoint: mean survival time, dose: 400.0 mg/kg/injection, schedule: Q04DX002 (ip), vehicle: saline with Tween-80
[7] = endpoint: mean survival time, dose: 12.5 mg/kg/injection, schedule: Q01DX009 (ip), vehicle: saline with Tween-80
[8] = endpoint: mean survival time, dose: 25.0 mg/kg/injection, schedule: Q01DX009 (ip), vehicle: saline with Tween-80
[9] = endpoint: mean survival time, dose: 100.0 mg/kg/injection, schedule: Q01DX009 (ip), vehicle: saline with Tween-80
[10] = endpoint: mean survival time, dose: 12.5 mg/kg/injection, schedule: Q04DX002 (ip), vehicle: saline with Tween-80
[11] = endpoint: mean survival time, dose: 25.0 mg/kg/injection, schedule: Q04DX002 (ip), vehicle: saline with Tween-80
[12] = endpoint: mean survival time, dose: 50.0 mg/kg/injection, schedule: Q04DX002 (ip), vehicle: saline with Tween-80
[13] = endpoint: mean survival time, dose: 100.0 mg/kg/injection, schedule: Q04DX003 (ip), vehicle: saline with Tween-80
[14] = endpoint: mean survival time, dose: 200.0 mg/kg/injection, schedule: Q04DX003 (ip), vehicle: saline with Tween-80
[15] = endpoint: mean survival time, dose: 50.0 mg/kg/injection, schedule: Q01DX009 (ip), vehicle: saline with Tween-80
[16] = endpoint: mean survival time, dose: 200.0 mg/kg/injection, schedule: Q01DX009 (ip), vehicle: saline with Tween-80

Measured: T/C

O=S(=O)([O][Hg][CH2]C1Cc2ccccc2O1)[O][Hg][CH2]C1Cc2ccccc2O1 (stereo not drawn)
inactive: endpoint: mean survival time, dose: 6.25 mg/kg/injection, schedule: Q01DX009 (ip), vehicle: Klucel (hydroxypropylcellulose) (HPC) 95 % of control | endpoint: mean survival time, dose: 12.5 mg/kg/injection, schedule: Q01DX009 (ip), vehicle: Klucel (hydroxypropylcellulose) (HPC) 92 % of control | endpoint: mean survival time, dose: 25.0 mg/kg/injection, schedule: Q01DX009 (ip), vehicle: Klucel (hydroxypropylcellulose) (HPC) 96 % of control | endpoint: median survival time, dose: 6.25 mg/kg/injection, schedule: Q04DX003 (ip), vehicle: saline with Tween-80 100 % of control | endpoint: median survival time, dose: 12.5 mg/kg/injection, schedule: Q04DX003 (ip), vehicle: saline with Tween-80 100 % of control | endpoint: median survival time, dose: 25.0 mg/kg/injection, schedule: Q04DX003 (ip), vehicle: saline with Tween-80 100 % of control

CN(C)c1ccc(N=Nc2nccs2)cc1
inactive: endpoint: mean survival time, dose: 18.7 mg/kg/injection, schedule: Q04DX003 (ip), vehicle: saline with Tween-80 86 % of control | endpoint: mean survival time, dose: 37.5 mg/kg/injection, schedule: Q04DX003 (ip), vehicle: saline with Tween-80 102 % of control | endpoint: mean survival time, dose: 75.0 mg/kg/injection, schedule: Q04DX003 (ip), vehicle: saline with Tween-80 96 % of control

Nc1nc2c(ncn2-c2ccc3oc4ccccc4c3c2)c(=O)[nH]1
inactive: [1] 93 % of control and 108 % of control | [2] 101 % of control | [3] 89 % of control and 97 % of control | [4] 97 % of control | [5] 89 % of control and 101 % of control | [6] 108 % of control

Nc1ccc(CCCCc2ccccc2)cc1
inactive: endpoint: mean survival time, dose: 100.0 mg/kg/injection, schedule: Q04DX003 (ip), vehicle: acetone 107 % of control

O=c1ccn(Cc2ccc([N+](=O)[O-])cc2)c(=O)[nH]1
inactive: [1] 94 % of control | [3] 90 % of control | [5] 98 % of control

CC12CCC3(CO3)CC1CCC1C2CCC2(C)C1CCC21CO1 (stereo not drawn)
inactive: endpoint: mean survival time, dose: 75.0 mg/kg/injection, schedule: Q01DX001 (ip), vehicle: saline with Tween-80 104 % of control | endpoint: mean survival time, dose: 150.0 mg/kg/injection, schedule: Q01DX001 (ip), vehicle: saline with Tween-80 106 % of control | endpoint: mean survival time, dose: 300.0 mg/kg/injection, schedule: Q01DX001 (ip), vehicle: saline with Tween-80 113 % of control

COC(=O)c1cc2cc3c(c(O)c2c(=O)o1)OC1(Cc2c(O)c4c(c(O)c2O1)C(=O)C(OC)CC4=O)CC3O (stereo not drawn)
inactive: [7] 92 % of control | [8] 94 % of control | [1] 91 % of control | [9] 101 % of control | [3] 96 % of control

CCN(Cc1ccccc1)c1ccc(SC#N)cc1
inactive: endpoint: mean survival time, dose: 100.0 mg/kg/injection, schedule: Q01DX001 (ip), vehicle: saline 100 % of control | endpoint: mean survival time, dose: 200.0 mg/kg/injection, schedule: Q01DX001 (ip), vehicle: saline 100 % of control | endpoint: mean survival time, dose: 400.0 mg/kg/injection, schedule: Q01DX001 (ip), vehicle: saline 93 % of control

CCOC(=O)c1cnc2c(cnn2CC)c1NN=C(C)C
inactive: endpoint: mean survival time, dose: 100.0 mg/kg/injection, schedule: Q04DX003 (ip), vehicle: saline 105 % of control | endpoint: mean survival time, dose: 200.0 mg/kg/injection, schedule: Q04DX003 (ip), vehicle: saline 105 % of control

CCOC(=O)C(Cl)c1ccc(OC)cc1 (stereo not drawn)
inactive: endpoint: mean survival time, dose: 100.0 mg/kg/injection, schedule: Q04DX003 (ip), vehicle: other 96 % of control | endpoint: mean survival time, dose: 200.0 mg/kg/injection, schedule: Q04DX003 (ip), vehicle: other 97 % of control | endpoint: mean survival time, dose: 400.0 mg/kg/injection, schedule: Q04DX003 (ip), vehicle: other 96 % of control

CCC(Cl)[N+](=O)[O-] (stereo not drawn)
inactive: endpoint: mean survival time, dose: 50.0 mg/kg/injection, schedule: Q04DX003 (ip), vehicle: Klucel (hydroxypropylcellulose) (HPC) 97 % of control | endpoint: mean survival time, dose: 100.0 mg/kg/injection, schedule: Q04DX003 (ip), vehicle: Klucel (hydroxypropylcellulose) (HPC) 107 % of control | endpoint: mean survival time, dose: 200.0 mg/kg/injection, schedule: Q04DX003 (ip), vehicle: Klucel (hydroxypropylcellulose) (HPC) 101 % of control

O=C(O)C1(C(=O)O)CCC1
inactive: endpoint: mean survival time, dose: 100.0 mg/kg/injection, schedule: Q04DX002 (ip), vehicle: saline 92 % of control | endpoint: mean survival time, dose: 200.0 mg/kg/injection, schedule: Q04DX002 (ip), vehicle: saline 111 % of control

Cc1ccc(Cl)cc1NC(=O)c1c(Br)c(Br)c(Br)c(Br)c1C(=O)O
inactive: [1] 106 % of control | [3] 110 % of control | [5] 108 % of control

COc1nc2c(N)ncnc2n1C1OC(CO)C(O)C1O (stereo not drawn)
inactive: [2] 103 % of control | [4] 103 % of control | [6] 96 % of control

COc1cc(N=CNc2cc(OC)n[n+]([O-])c2)c[n+]([O-])n1
inactive: [10] 111 % of control | [11] 86 % of control | [12] 101 % of control

O=c1c(-c2ccccc2)nn(C2OC(CO)C(O)C(O)C2O)c(=S)n1-c1ccccc1 (stereo not drawn)
inactive: endpoint: mean survival time, dose: 7.8 mg/kg/injection, schedule: Q01DX005 (ip), vehicle: water 101 % of control | endpoint: mean survival time, dose: 15.6 mg/kg/injection, schedule: Q01DX005 (ip), vehicle: water 96 % of control | endpoint: mean survival time, dose: 31.3 mg/kg/injection, schedule: Q01DX005 (ip), vehicle: water 101 % of control | endpoint: mean survival time, dose: 62.5 mg/kg/injection, schedule: Q01DX005 (ip), vehicle: water 93 % of control | endpoint: mean survival time, dose: 125.0 mg/kg/injection, schedule: Q01DX005 (ip), vehicle: water 101 % of control

CC(=O)OCC1OC(N2C(=O)/C(=C/c3ccc([N+](=O)[O-])cc3)SC2=S)C(OC(C)=O)C(OC(C)=O)C1OC(C)=O (stereo not drawn)
inactive: endpoint: mean survival time, dose: 0.78 mg/kg/injection, schedule: Q01DX005 (ip), vehicle: distilled water + Tween-80 96 % of control | endpoint: mean survival time, dose: 1.56 mg/kg/injection, schedule: Q01DX005 (ip), vehicle: distilled water + Tween-80 93 % of control | endpoint: mean survival time, dose: 3.13 mg/kg/injection, schedule: Q01DX005 (ip), vehicle: distilled water + Tween-80 93 % of control | endpoint: mean survival time, dose: 6.25 mg/kg/injection, schedule: Q01DX005 (ip), vehicle: distilled water + Tween-80 90 % of control | endpoint: mean survival time, dose: 12.5 mg/kg/injection, schedule: Q01DX005 (ip), vehicle: distilled water + Tween-80 93 % of control

CC(C)(C)N/C(=C/C(=O)c1ccccc1)c1ccccc1
inactive: [13] 94 % of control | [14] 96 % of control | endpoint: mean survival time, dose: 400.0 mg/kg/injection, schedule: Q04DX003 (ip), vehicle: saline with Tween-80 95 % of control

Oc1c(C(c2ccccc2)N2CCOCC2)ccc2ccccc12 (stereo not drawn)
inactive: [15] 94 % of control | [9] 102 % of control | [13] 95 % of control | [16] 98 % of control | [14] 103 % of control

O=P(OCc1ccccc1)(N(CCCl)CCCl)N1CCOCC1 (stereo not drawn)
inactive: endpoint: mean survival time, dose: 62.5 mg/kg/injection, schedule: Q01DX010 (ip), vehicle: saline 103 % of control | endpoint: mean survival time, dose: 125.0 mg/kg/injection, schedule: Q01DX010 (ip), vehicle: saline 101 % of control | endpoint: mean survival time, dose: 250.0 mg/kg/injection, schedule: Q01DX010 (ip), vehicle: saline 104 % of control

Cc1cc2cc3n(c2nn1)N=C(Cl)CC3
inactive: endpoint: mean survival time, dose: 61.87 mg/kg/injection, schedule: Q04DX002 (ip), vehicle: Klucel (hydroxypropylcellulose) (HPC) 103 % of control | endpoint: mean survival time, dose: 100.0 mg/kg/injection, schedule: Q04DX002 (ip), vehicle: Klucel (hydroxypropylcellulose) (HPC) 101 % of control | endpoint: mean survival time, dose: 123.75 mg/kg/injection, schedule: Q04DX002 (ip), vehicle: Klucel (hydroxypropylcellulose) (HPC) 105 % of control | endpoint: mean survival time, dose: 200.0 mg/kg/injection, schedule: Q04DX002 (ip), vehicle: Klucel (hydroxypropylcellulose) (HPC) 103 % of control | endpoint: mean survival time, dose: 247.5 mg/kg/injection, schedule: Q04DX002 (ip), vehicle: Klucel (hydroxypropylcellulose) (HPC) 109 % of control

O=C(CNC(=O)Nc1cccc(C(F)(F)F)c1)N/N=C/c1ccccc1O
inactive: [7] 95 % of control | [8] 87 % of control | [15] 88 % of control | [9] 100 % of control | [16] 103 % of control

CC(C)(C)C1SCC(O)CS1 (stereo not drawn)
inactive: [10] 105 % of control | [11] 97 % of control | [12] 97 % of control
